According to PubChem BioAssay (NCI):
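Method: 48-hour compound exposure of cells in 96-well plates, five concentrations, linear interpolation of endpoints. At the TGI there is no net growth.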

Columns and labels:
Assay in all cases: NCI-60 cell line screen, 48 h
786-0 renal = test system: 786-0 renal
A498 renal = test system: A498 renal
A549 NSCLC = test system: A549 NSCLC
ACHN renal = test system: ACHN renal
BT-549 breast = test system: BT-549 breast
CAKI-1 renal = test system: CAKI-1 renal
CCRF-CEM leukemia = test system: CCRF-CEM leukemia
COLO 205 colon = test system: COLO 205 colon
DU-145 prostate = test system: DU-145 prostate
EKVX NSCLC = test system: EKVX NSCLC
HCC-2998 colon = test system: HCC-2998 colon
HCT-116 colon = test system: HCT-116 colon
HL-60(TB) leukemia = test system: HL-60(TB) leukemia
HOP-62 NSCLC = test system: HOP-62 NSCLC
HT29 colon = test system: HT29 colon
IGROV1 ovarian = test system: IGROV1 ovarian
K-562 leukemia = test system: K-562 leukemia
KM12 colon = test system: KM12 colon
M14 melanoma = test system: M14 melanoma
MALME-3M melanoma = test system: MALME-3M melanoma
MCF7 breast = test system: MCF7 breast
MDA-MB-231 breast = test system: MDA-MB-231 breast
MDA-MB-435 = test system: MDA-MB-435
MDA-N = test system: MDA-N
MOLT-4 leukemia = test system: MOLT-4 leukemia
NCI-H460 lung = test system: NCI-H460 lung
NCI/ADR-RES ovarian = test system: NCI/ADR-RES ovarian
OVCAR-3 ovarian = test system: OVCAR-3 ovarian
OVCAR-5 ovarian = test system: OVCAR-5 ovarian
OVCAR-8 ovarian = test system: OVCAR-8 ovarian
PC-3 prostate = test system: PC-3 prostate
RPMI-8226 leukemia = test system: RPMI-8226 leukemia
RXF 393 renal = test system: RXF 393 renal
SF-268 CNS = test system: SF-268 CNS
SF-295 CNS = test system: SF-295 CNS
SF-539 CNS = test system: SF-539 CNS
SK-MEL-2 melanoma = test system: SK-MEL-2 melanoma
SK-MEL-28 melanoma = test system: SK-MEL-28 melanoma
SK-MEL-5 melanoma = test system: SK-MEL-5 melanoma
SK-OV-3 ovarian = test system: SK-OV-3 ovarian
SN12C renal = test system: SN12C renal
SNB-19 CNS = test system: SNB-19 CNS
SNB-75 CNS = test system: SNB-75 CNS
SR leukemia = test system: SR leukemia
SW-620 colon = test system: SW-620 colon
T-47D breast = test system: T-47D breast
TK-10 renal = test system: TK-10 renal
U251 CNS = test system: U251 CNS
UACC-257 melanoma = test system: UACC-257 melanoma
UACC-62 melanoma = test system: UACC-62 melanoma
UO-31 renal = test system: UO-31 renal
HCT-15 colon = test system: HCT-15 colon
HOP-92 NSCLC = test system: HOP-92 NSCLC
HS 578T breast = test system: HS 578T breast
LOX IMVI melanoma = test system: LOX IMVI melanoma
NCI-H226 lung = test system: NCI-H226 lung
NCI-H23 lung = test system: NCI-H23 lung
NCI-H522 lung = test system: NCI-H522 lung
OVCAR-4 ovarian = test system: OVCAR-4 ovarian

`O=C1CCCCC/C1=C\c1ccc([N+](=O)[O-])cc1` gave a TGI (786-0 renal) of 54.6 µM, a TGI (A498 renal) greater than 100 µM and a TGI (A549 NSCLC) greater than 100 µM. It also gave a TGI (ACHN renal) of 55 µM, a TGI (BT-549 breast) of 54.3 µM and a TGI (CAKI-1 renal) of 59.9 µM. For the same compound, the TGI (CCRF-CEM leukemia) was 70.5 µM, the TGI (COLO 205 colon) was 49.2 µM and the TGI (DU-145 prostate) was greater than 100 µM. The TGI (EKVX NSCLC) was greater than 100 µM, the TGI (HCC-2998 colon) was 33.1 µM and the TGI (HCT-116 colon) was 57.6 µM. It also gave a TGI (HL-60(TB) leukemia) of 94.4 µM, a TGI (HOP-62 NSCLC) greater than 100 µM and a TGI (HT29 colon) of 77.7 µM. For the same compound, the TGI (IGROV1 ovarian) was 34.5 µM, the TGI (K-562 leukemia) was greater than 100 µM and the TGI (KM12 colon) was 37.6 µM. It also gave a TGI (M14 melanoma) greater than 100 µM, a TGI (MALME-3M melanoma) greater than 100 µM and a TGI (MCF7 breast) greater than 100 µM. For the same compound, the TGI (MDA-MB-231 breast) was 37.9 µM, the TGI (MDA-MB-435) was greater than 100 µM and the TGI (MDA-N) was greater than 100 µM. The TGI (MOLT-4 leukemia) was greater than 100 µM, the TGI (NCI-H460 lung) was 39.4 µM and the TGI (NCI/ADR-RES ovarian) was greater than 100 µM. The TGI (OVCAR-3 ovarian) was 73.2 µM, the TGI (OVCAR-5 ovarian) was greater than 100 µM and the TGI (OVCAR-8 ovarian) was greater than 100 µM. It also gave a TGI (PC-3 prostate) greater than 100 µM, a TGI (RPMI-8226 leukemia) of 97 µM and a TGI (RXF 393 renal) greater than 100 µM. For the same compound, the TGI (SF-268 CNS) was 82 µM, the TGI (SF-295 CNS) was greater than 100 µM and the TGI (SF-539 CNS) was 62.5 µM. It also gave a TGI (SK-MEL-2 melanoma) greater than 100 µM, a TGI (SK-MEL-28 melanoma) greater than 100 µM and a TGI (SK-MEL-5 melanoma) of 43.7 µM. The TGI (SK-OV-3 ovarian) was greater than 100 µM, the TGI (SN12C renal) was 59.6 µM and the TGI (SNB-19 CNS) was greater than 100 µM. It also gave a TGI (SNB-75 CNS) greater than 100 µM, a TGI (SR leukemia) of 92.9 µM and a TGI (SW-620 colon) greater than 100 µM. For the same compound, the TGI (T-47D breast) was greater than 100 µM, the TGI (TK-10 renal) was 74.4 µM and the TGI (U251 CNS) was greater than 100 µM. It also gave a TGI (UACC-257 melanoma) of 54.9 µM, a TGI (UACC-62 melanoma) greater than 100 µM and a TGI (UO-31 renal) of 79.7 µM.

`Nc1ccc(S(=O)(=O)c2ccc(NCN3C(=O)NC(=O)C(=O)C3=O)cc2)cc1` was tested, and the TGI (786-0 renal) was greater than 100 µM, the TGI (A498 renal) was greater than 100 µM and the TGI (A549 NSCLC) was greater than 100 µM. It also gave a TGI (ACHN renal) greater than 100 µM, a TGI (BT-549 breast) greater than 100 µM and a TGI (CAKI-1 renal) greater than 100 µM. It also gave a TGI (CCRF-CEM leukemia) greater than 100 µM, a TGI (EKVX NSCLC) greater than 100 µM and a TGI (HCC-2998 colon) greater than 100 µM. It also gave a TGI (HCT-116 colon) greater than 100 µM, a TGI (HCT-15 colon) greater than 100 µM and a TGI (HOP-62 NSCLC) greater than 100 µM. It also gave a TGI (HOP-92 NSCLC) greater than 100 µM, a TGI (HS 578T breast) greater than 100 µM and a TGI (HT29 colon) greater than 100 µM. The TGI (IGROV1 ovarian) was greater than 100 µM, the TGI (K-562 leukemia) was greater than 100 µM and the TGI (KM12 colon) was greater than 100 µM. For the same compound, the TGI (LOX IMVI melanoma) was greater than 100 µM, the TGI (M14 melanoma) was greater than 100 µM and the TGI (MALME-3M melanoma) was greater than 100 µM. It also gave a TGI (MDA-MB-231 breast) greater than 100 µM, a TGI (MDA-MB-435) greater than 100 µM and a TGI (MDA-N) greater than 100 µM. The TGI (MOLT-4 leukemia) was greater than 100 µM, the TGI (NCI-H226 lung) was greater than 100 µM and the TGI (NCI-H23 lung) was greater than 100 µM. The TGI (NCI-H460 lung) was greater than 100 µM, the TGI (NCI-H522 lung) was greater than 100 µM and the TGI (NCI/ADR-RES ovarian) was greater than 100 µM. It also gave a TGI (OVCAR-3 ovarian) greater than 100 µM, a TGI (OVCAR-4 ovarian) greater than 100 µM and a TGI (OVCAR-5 ovarian) greater than 100 µM. It also gave a TGI (OVCAR-8 ovarian) greater than 100 µM, a TGI (PC-3 prostate) greater than 100 µM and a TGI (RXF 393 renal) greater than 100 µM. For the same compound, the TGI (SF-268 CNS) was greater than 100 µM, the TGI (SF-295 CNS) was greater than 100 µM and the TGI (SK-MEL-2 melanoma) was greater than 100 µM. The TGI (SK-MEL-28 melanoma) was greater than 100 µM, the TGI (SK-MEL-5 melanoma) was greater than 100 µM and the TGI (SN12C renal) was greater than 100 µM. It also gave a TGI (SNB-19 CNS) greater than 100 µM, a TGI (SR leukemia) greater than 100 µM and a TGI (SW-620 colon) greater than 100 µM. For the same compound, the TGI (T-47D breast) was greater than 100 µM, the TGI (TK-10 renal) was greater than 100 µM and the TGI (U251 CNS) was greater than 100 µM. For the same compound, the TGI (UACC-257 melanoma) was greater than 100 µM, the TGI (UACC-62 melanoma) was greater than 100 µM and the TGI (UO-31 renal) was greater than 100 µM.
